Laboratory results taken from patent US9499519B2, “Fused pyrimidine compounds and use thereof” (Medivation Technologies, Inc., priority 2012, dated 2016).
Like-named read-outs stand apart in the source and are kept apart here.

Experiments:
[1] = system: Akt phosphorylation induced by IGF-1R; experiment: Western blot analysis of Akt phosphorylation induced by IGF-1 in HT-29 cells; assay type: cell-based, Human; conditions: for Levels of phosphorylated AKT in treated cells (pAKT/actin): HT-29 cells, IGF-1; for p-AKT relative to levels with 0.1 nM compound: Table B2 lower part; for Normalized phosphorylated AKT (relative to actin) levels relative to 0.1 nM compound treatment: Table B2 upper part; for pAKT relative to 0.1 nM compound: derivatives of Cpd. No. 8b
Method in brief: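 HT-29 cells grown 24 h in DME/F12 with 10% FBS, serum-starved 24 h, then exposed 2 h to compound at 0.1, 1, 10 or 100; controls received DMSO or 10 ng/mL IGF-1. Lysate soluble fractions quantified by BCA before western blotting for phospho-Akt.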

IGF-1R = biological target: T1, IGF-1R (Homo sapiens, UniProt P08069); experiment: In vitro IGF-1R enzymatic assay (ADP-Glo kinase assay); assay type: biochemical; conditions: activated IGF-1R, 30 nM; for % Inh @ 30 nM (N1) / % Inh @ 30 nM (N2): 0.03 µM
T1 construct: purchased Millipore 14-802
Description: (§1) IC50 values of the compounds of the invention against IGF-1R and IR were measured in vitro using an ADP-Glo kinase assay Kit (Promega). […] Kinase reactions in both assays were conducted at 30° C. for 20 min with increasing concentrations of compounds of the invention.
Additional compounds of the invention were screened against activated IGF-1R.

IR = biological target: T2, IR (Homo sapiens, UniProt P06213); experiment: In vitro IR enzymatic assay (ADP-Glo kinase assay); assay type: biochemical; conditions: activated IR, 30 nM
T2 construct: purchased Millipore 14-803
Description: as §1
Additional compounds of the invention were screened against activated IR.

[2] = N1, read-out: % Inh @ 30 nM (N1)
[3] = N2, read-out: % Inh @ 30 nM (N2)
[4] = average, read-out: % Inh @ 30 nM Avg

T2 sequence (P06213 28-1382): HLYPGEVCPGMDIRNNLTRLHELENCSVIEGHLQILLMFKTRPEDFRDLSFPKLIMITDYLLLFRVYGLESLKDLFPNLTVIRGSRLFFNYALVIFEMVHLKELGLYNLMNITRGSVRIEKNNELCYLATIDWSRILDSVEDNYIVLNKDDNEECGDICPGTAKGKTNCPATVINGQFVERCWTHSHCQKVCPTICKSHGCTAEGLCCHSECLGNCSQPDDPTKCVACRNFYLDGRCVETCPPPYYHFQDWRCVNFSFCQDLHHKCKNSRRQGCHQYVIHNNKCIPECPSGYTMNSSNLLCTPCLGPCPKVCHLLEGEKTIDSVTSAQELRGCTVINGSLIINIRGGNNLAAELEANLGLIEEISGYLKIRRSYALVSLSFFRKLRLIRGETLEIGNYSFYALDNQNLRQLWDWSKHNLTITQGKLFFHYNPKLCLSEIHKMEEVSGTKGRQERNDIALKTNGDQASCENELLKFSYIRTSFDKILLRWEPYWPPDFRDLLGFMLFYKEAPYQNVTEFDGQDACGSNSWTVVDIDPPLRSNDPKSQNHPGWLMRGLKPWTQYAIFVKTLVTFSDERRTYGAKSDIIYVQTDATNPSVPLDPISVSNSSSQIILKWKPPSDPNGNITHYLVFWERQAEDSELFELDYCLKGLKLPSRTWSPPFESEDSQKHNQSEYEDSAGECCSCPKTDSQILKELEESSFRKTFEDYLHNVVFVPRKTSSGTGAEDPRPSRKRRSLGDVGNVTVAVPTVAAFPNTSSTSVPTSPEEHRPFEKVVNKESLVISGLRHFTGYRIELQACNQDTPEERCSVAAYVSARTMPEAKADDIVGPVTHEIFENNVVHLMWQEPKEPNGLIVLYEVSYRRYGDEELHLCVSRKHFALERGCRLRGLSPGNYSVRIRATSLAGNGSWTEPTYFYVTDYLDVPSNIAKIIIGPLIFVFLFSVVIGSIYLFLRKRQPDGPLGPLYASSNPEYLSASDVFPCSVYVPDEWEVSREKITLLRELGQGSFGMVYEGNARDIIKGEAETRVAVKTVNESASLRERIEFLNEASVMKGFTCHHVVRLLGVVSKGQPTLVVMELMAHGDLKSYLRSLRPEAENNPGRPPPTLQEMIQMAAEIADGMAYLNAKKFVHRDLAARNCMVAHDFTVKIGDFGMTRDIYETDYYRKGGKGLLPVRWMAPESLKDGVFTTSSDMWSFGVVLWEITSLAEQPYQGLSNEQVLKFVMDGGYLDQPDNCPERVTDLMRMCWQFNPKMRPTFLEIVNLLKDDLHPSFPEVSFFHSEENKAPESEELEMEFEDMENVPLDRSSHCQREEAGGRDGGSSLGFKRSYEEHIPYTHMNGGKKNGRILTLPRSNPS
T1 sequence (P08069 31-1367): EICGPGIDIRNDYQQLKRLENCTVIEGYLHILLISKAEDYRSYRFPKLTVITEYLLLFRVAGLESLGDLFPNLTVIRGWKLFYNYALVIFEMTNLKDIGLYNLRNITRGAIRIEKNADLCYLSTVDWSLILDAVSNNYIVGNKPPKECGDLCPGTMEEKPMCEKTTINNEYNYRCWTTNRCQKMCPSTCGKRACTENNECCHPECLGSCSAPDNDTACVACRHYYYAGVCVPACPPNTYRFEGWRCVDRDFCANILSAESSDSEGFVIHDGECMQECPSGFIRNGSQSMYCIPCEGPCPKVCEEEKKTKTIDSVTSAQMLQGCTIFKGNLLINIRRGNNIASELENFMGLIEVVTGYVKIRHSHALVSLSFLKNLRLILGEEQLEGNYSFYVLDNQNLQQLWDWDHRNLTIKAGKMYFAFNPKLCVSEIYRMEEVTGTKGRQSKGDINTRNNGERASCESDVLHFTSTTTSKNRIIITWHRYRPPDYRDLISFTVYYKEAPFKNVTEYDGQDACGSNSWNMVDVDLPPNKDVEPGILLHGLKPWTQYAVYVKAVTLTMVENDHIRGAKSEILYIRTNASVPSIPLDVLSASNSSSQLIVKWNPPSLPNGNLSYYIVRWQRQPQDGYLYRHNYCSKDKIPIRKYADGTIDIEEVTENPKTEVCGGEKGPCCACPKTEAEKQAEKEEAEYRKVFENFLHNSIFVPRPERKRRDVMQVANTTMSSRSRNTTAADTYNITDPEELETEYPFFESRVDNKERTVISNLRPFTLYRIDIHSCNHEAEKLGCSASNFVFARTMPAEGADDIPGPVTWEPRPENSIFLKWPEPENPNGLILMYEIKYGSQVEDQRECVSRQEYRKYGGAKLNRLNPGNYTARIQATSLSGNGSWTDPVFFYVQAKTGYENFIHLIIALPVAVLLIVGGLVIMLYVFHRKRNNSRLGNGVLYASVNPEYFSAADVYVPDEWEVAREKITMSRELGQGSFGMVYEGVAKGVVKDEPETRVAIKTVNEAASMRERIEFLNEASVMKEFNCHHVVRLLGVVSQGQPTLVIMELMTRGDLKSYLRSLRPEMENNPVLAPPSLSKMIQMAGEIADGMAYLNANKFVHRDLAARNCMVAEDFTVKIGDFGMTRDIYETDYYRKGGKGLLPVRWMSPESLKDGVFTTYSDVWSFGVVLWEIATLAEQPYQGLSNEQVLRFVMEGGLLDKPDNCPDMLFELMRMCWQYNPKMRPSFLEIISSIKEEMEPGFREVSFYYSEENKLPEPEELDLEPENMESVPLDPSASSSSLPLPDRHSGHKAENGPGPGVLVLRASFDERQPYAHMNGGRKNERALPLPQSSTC

Row | Structure (SMILES) | Levels of phosphorylated AKT in treated cells (pAKT/actin) ([1]; 0.1 nM compound) | p-AKT relative to levels with 0.1 nM compound ([1]; 0.1 nM) | Normalized phosphorylated AKT (relative to actin) levels relative to 0.1 nM compound treatment ([1]; 0.1 nM) | Levels of phosphorylated AKT in treated cells (pAKT/actin) ([1]; 1 nM compound) | p-AKT relative to levels with 0.1 nM compound ([1]; 1 nM) | Normalized phosphorylated AKT (relative to actin) levels relative to 0.1 nM compound treatment ([1]; 1 nM) | Levels of phosphorylated AKT in treated cells (pAKT/actin) ([1]; 10 nM compound) | p-AKT relative to levels with 0.1 nM compound ([1]; 10 nM) | Normalized phosphorylated AKT (relative to actin) levels relative to 0.1 nM compound treatment ([1]; 10 nM) | Levels of phosphorylated AKT in treated cells (pAKT/actin) ([1]; 100 nM compound) | p-AKT relative to levels with 0.1 nM compound ([1]; 100 nM) | Normalized phosphorylated AKT (relative to actin) levels relative to 0.1 nM compound treatment ([1]; 100 nM) | % Inh @ 30 nM (N1) (IGF-1R; N1) | % Inh @ 30 nM (N2) (IGF-1R; N2) | % Inh @ 30 nM Avg (IGF-1R; average) | % Inh @ 30 nM (N1) (IR; N1, 0.03 µM) | % Inh @ 30 nM (N2) (IR; N2, 0.03 µM) | % Inh @ 30 nM Avg (IR; average) | also measured
1 | CC(C)c1cc(Nc2nc(N3CCCC3C(=O)Nc3ccc(F)nc3)nc3c2CCCC3)n[nH]1 (single isomer, unassigned) [Compound 13b, N-(6-fluoropyridin-3-yl)-1-(4-(5-isopropyl-1H-pyrazol-3-ylamino)-5,6,7,8-tetrahydroquinazolin-2-yl)pyrrolidine-2-carboxamide] | 0.22 | 1.0 | 1.0 | 0.09 | 0.4 | 0.4 | 0.00 | 0.0 | 0.0 | 0.00 | 0.0 | 0.0 | – | – | – | – | – | – | pAKT relative to 0.1 nM compound ([1]; 0.1 nM): 1.00; pAKT relative to 0.1 nM compound ([1]; 1 nM): 0.49; pAKT relative to 0.1 nM compound ([1]; 10 nM): 0.04; pAKT relative to 0.1 nM compound ([1]; 100 nM): 0.02; inhibition at 0.03 µM (IGF-1R; [2]): 82%; inhibition at 0.03 µM (IGF-1R; [3]): 80%; inhibition at 0.03 µM (IGF-1R; [4]): 81%; inhibition at 0.03 µM (IR; [2]): 84%; inhibition at 0.03 µM (IR; [3]): 80%; inhibition at 0.03 µM (IR; [4]): 82%
2 | O=C(Nc1ccc(F)nc1)C1CCCN1c1nc2c(c(Nc3cc(C4CCCC4)[nH]n3)n1)CCCC2 (single isomer, unassigned) [Compound 15b, 1-(4-(5-cyclopentyl-1H-pyrazol-3-ylamino)-5,6,7,8-tetrahydroquinazolin-2-yl)-N-(6-fluoropyridin-3-yl)pyrrolidine-2-carboxamide] | 0.52 | 1.0 | 1.0 | 0.58 | 1.1 | 1.1 | 0.43 | 0.8 | 0.8 | 0.13 | 0.3 | 0.3 | 32% | 28% | 30% | 28% | 31% | 30% | –
3 | CC(C)c1cc(Nc2nc(N3CCCCC3C(=O)Nc3ccc(F)nc3)nc3c2CCC3)n[nH]1 (single isomer, unassigned) [Compound 16a, N-(6-fluoropyridin-3-yl)-1-(4-(5-isopropyl-1H-pyrazol-3-ylamino)-6,7-dihydro-5H-cyclopenta[d]pyrimidin-2-yl)piperidine-2-carboxamide] | 0.82 | 1.0 | 1.0 | 0.62 | 0.8 | 0.8 | 0.61 | 0.7 | 0.7 | 0.30 | 0.4 | 0.4 | – | 15% | – | 1% | −7% | −3% | –
4 | CC(C)c1cc(Nc2nc(N3CCCCC3C(=O)Nc3ccc(F)nc3)nc3c2CCC3)n[nH]1 (single isomer, unassigned) [Compound 16b, N-(6-fluoropyridin-3-yl)-1-(4-(5-isopropyl-1H-pyrazol-3-ylamino)-6,7-dihydro-5H-cyclopenta[d]pyrimidin-2-yl)piperidine-2-carboxamide] | 0.53 | 1.0 | 1.0 | 0.51 | 1.0 | 1.0 | 0.15 | 0.3 | 0.3 | 0.01 | 0.0 | 0.0 | 40% | 40% | 40% | 26% | 23% | 25% | –
5 | O=C(Nc1ccc(F)nc1)C1CCCCN1c1nc2c(c(Nc3cc(C4CCCC4)[nH]n3)n1)CCC2 (single isomer, unassigned) [Compound 17b, 1-(4-(5-cyclopentyl-1H-pyrazol-3-ylamino)-6,7-dihydro-5H-cyclopenta[d]pyrimidin-2-yl)-N-(6-fluoropyridin-3-yl)piperidine-2-carboxamide] | 0.83 | 1.0 | 1.0 | 0.99 | 1.2 | 1.2 | 0.95 | 1.1 | 1.1 | 1.08 | 1.3 | 1.3 | 21% | 23% | 22% | – | 10% | 6% | % Inh @ 30 nM (N1) (IR; N1): 2%
